Here are results for 6 compounds from ChEMBL document CHEMBL1201862, “PubChem BioAssay data set” (2004).

Assay [1] addresses T1, Replicative DNA helicase DnaB (Mycobacterium tuberculosis, UniProt P9WMR3).
T1 sequence (P9WMR3 whole entry): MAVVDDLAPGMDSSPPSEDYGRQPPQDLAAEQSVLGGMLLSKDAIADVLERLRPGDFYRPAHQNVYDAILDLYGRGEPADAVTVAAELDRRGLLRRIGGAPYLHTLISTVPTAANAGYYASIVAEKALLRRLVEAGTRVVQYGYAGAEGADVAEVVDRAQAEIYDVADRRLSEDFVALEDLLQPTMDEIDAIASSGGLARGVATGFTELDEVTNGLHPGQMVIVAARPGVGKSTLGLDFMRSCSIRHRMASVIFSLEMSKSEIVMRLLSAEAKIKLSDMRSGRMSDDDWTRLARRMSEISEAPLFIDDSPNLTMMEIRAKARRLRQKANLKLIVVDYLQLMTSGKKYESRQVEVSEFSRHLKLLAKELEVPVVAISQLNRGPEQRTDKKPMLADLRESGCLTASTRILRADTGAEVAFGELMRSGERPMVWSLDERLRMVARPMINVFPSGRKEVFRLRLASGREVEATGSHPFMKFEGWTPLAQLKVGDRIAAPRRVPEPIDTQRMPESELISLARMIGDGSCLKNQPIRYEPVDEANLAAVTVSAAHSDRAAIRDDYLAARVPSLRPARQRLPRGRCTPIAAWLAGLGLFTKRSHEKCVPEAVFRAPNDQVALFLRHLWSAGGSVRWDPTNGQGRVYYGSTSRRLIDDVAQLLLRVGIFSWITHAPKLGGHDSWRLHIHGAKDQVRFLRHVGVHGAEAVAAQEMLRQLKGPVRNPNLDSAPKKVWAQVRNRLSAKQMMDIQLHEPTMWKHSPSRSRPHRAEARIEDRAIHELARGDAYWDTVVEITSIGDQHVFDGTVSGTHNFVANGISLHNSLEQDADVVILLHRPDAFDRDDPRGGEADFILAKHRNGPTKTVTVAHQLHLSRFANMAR
The experiment in a line: DnaB intein splicing inhibitors, dose response, biochemical, cell-free fluorescence (AID 449749). The format is functional.

A further assay concerns the target T2, Protein RecA (Mycobacterium tuberculosis, UniProt P9WHJ3).
T2 sequence (P9WHJ3 whole entry): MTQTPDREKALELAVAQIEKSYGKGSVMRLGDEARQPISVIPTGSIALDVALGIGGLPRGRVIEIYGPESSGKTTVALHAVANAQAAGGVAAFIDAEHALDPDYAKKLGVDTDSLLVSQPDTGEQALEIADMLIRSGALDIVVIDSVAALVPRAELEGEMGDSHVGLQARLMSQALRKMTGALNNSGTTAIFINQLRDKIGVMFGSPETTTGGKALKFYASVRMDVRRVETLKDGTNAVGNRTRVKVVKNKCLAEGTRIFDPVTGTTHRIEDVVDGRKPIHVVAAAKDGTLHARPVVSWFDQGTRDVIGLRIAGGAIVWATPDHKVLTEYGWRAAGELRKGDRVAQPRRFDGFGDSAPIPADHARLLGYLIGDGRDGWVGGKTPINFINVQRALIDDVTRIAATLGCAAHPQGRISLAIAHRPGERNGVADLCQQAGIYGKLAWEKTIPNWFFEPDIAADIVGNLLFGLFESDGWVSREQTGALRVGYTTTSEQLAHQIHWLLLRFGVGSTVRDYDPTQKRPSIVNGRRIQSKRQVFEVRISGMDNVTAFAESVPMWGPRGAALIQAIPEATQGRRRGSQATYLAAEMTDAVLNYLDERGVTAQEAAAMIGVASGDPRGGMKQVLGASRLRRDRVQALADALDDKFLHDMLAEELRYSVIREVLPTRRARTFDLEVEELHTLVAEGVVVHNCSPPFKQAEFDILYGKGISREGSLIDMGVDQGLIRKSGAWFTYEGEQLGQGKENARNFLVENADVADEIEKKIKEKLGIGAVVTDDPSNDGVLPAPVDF
In words: Fluorescence Cell-Free Homogeneous Dose Retest to Identify Inhibitors of RecA-Intein Splicing Activity. [Related pubchem assays (depositor defined):AID2097, AID2223, AID489010, AID492950]. It counts as functional.

The next assay deals with T3, Leucine aminopeptidase (Plasmodium falciparum 3D7, UniProt Q8IL11).
T3 sequence (Q8IL11 whole entry): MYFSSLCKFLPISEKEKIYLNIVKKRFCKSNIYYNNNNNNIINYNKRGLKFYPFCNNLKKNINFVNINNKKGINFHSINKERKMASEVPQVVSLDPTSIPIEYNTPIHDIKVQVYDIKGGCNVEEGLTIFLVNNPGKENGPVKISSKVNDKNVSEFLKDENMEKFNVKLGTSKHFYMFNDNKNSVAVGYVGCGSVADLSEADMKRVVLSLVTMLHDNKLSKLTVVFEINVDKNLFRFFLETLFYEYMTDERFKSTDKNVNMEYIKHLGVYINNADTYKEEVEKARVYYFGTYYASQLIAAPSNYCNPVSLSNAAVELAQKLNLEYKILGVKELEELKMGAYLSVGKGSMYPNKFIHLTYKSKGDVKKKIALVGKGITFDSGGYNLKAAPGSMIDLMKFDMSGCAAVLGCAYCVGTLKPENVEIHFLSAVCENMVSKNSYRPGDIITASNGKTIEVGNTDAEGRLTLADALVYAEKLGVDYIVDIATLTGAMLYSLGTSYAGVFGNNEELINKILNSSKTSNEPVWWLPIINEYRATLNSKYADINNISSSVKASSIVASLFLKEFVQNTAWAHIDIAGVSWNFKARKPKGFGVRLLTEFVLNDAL
In words: P. falciparum M17LAP inhibitors, primary screen, biochemical, fluorogenic H-Leu-NHMec substrate, 1536-well (AID 1619). The format is functional.

Assay [2] in a line: inhibitors of Vif binding to APOBEC3G peptide, primary screen, biochemical, TR-FRET, GST-Vif 1-94, biotin-A3G peptide, dose response retest (AID 1117319).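 Note: TR-FRET signal of purified GST-Vif binding a biotinylated A3G peptide; inhibitors lower the FRET signal by blocking Vif and A3G binding.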 It counts as functional. For orientation: Time-resolved FRET reads energy transfer from a long-lived donor to a nearby acceptor.
Assay [3] has as its target T4, COUP transcription factor 2 (Homo sapiens, UniProt P24468).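 Note: HEK293 cells transiently cotransfected with COUP-TFII expression vector and reporter; luciferase reporter luminescence driven by COUP-TFII from the pX2-168 reporter plasmid.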
T4 sequence (P24468 whole entry): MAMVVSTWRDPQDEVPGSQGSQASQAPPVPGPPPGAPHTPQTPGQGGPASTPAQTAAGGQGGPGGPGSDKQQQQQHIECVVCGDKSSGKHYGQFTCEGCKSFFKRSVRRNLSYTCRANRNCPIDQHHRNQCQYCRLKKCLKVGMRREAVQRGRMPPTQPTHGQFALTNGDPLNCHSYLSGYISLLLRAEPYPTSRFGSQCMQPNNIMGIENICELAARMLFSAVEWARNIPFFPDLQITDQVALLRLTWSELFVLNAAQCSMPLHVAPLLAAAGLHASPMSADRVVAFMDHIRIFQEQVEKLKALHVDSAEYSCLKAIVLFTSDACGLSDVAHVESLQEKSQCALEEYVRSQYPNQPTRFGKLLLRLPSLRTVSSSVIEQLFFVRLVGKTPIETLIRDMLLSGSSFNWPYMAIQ
In words: Luminescence-based cell-based high throughput dose response assay to identify inhibitors of COUP-TFII (NR2F2). It counts as functional.

Assay [4] has as its target T5, Heat shock factor protein 1 (Mus musculus, UniProt P38532).
T5 sequence (P38532 whole entry): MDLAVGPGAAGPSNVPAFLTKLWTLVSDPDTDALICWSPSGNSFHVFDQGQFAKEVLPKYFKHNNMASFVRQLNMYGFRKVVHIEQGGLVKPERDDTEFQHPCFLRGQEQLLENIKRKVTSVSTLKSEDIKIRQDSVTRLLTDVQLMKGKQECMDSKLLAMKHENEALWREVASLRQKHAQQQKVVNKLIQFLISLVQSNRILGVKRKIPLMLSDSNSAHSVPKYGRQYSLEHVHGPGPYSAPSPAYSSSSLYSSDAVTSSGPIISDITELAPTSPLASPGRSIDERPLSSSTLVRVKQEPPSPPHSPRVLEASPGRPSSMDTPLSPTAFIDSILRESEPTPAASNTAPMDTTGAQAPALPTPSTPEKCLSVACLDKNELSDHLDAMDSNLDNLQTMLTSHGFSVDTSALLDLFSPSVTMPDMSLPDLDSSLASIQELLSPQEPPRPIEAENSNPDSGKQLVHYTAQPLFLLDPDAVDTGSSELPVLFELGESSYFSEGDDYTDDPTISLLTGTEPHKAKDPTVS
In words: inhibition of MG132-induced HSE-luciferase signal, confirmation, cell-based, NIH3T3, luminescence, dose retest (AID 2382).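 Note: NIH3T3 fibroblasts with HSF1-driven luciferase reporter stressed by proteasome inhibitor MG132; luminescence from HSF1-driven luciferase expression after 8 hours of MG132 stress.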 It counts as functional.

In another assay the target is Estrogen receptor beta (Homo sapiens, UniProt Q92731). The experiment in a line: ERβ–SRC-3 coactivator interaction inhibitors, confirmation, orthogonal assay, biochemical, ELISA, streptavidin-HRP readout (AID 1060).
Another assay has as its target Cytochrome P450 3A4 (Homo sapiens, UniProt P08684). Particulars: Potency.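 Note: confirmatory qHTS run detecting inhibitors and substrates of CYP3A4.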
Assay [5] can be described thus: HepG2 cell cytotoxicity, dose response, cytotoxicity control, cherry-picked samples (AID 1159577). It counts as functional, cell-based.
Assay [6] in a line: P. falciparum Dd2 growth inhibitors, dose response, SYBR Green, cherry-picked samples (AID 1159567). The format is functional, cell-based.
Assay [7] in a line: inhibitors of PGC1a acetylation in cells, dose response, cell-based, cherry-picked samples (AID 720514).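 Note: potency may reflect raised or lowered acetylation signal.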 The format is functional.
Assay [8] in a line: cytotoxicity in OVCAR8 ovarian cancer cells, dose response, PAX8 project, cell-based, plate reader, dry powder samples (AID 743197). It counts as functional. Particulars: OVCAR-8.
Assay [9] is described as follows: NIH:OVCAR-3 ovarian cancer cell cytotoxicity, dose response, PAX8 inhibitor project, plate reader, dry powder samples (AID 743044). It counts as functional, cell-based.
The target of another assay is Paired box protein Pax-8 (Homo sapiens, UniProt Q06710). In words: inhibitors of PAX8-driven TPO luciferase reporter, dose response, RMG-I cells, cherry-pick (AID 687027).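 Note: luciferase reporter driven by Pax8 target thyroperoxidase promoter measured by SteadyGlo luminescence.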 It counts as functional, cell-based. Background: A reporter such as luciferase makes a cellular process visible.

One may read the AC50 as the concentration at which the activity in the assay is half-maximal. As a reminder, the EC50 is the midpoint of the concentration-response curve. By IC50 is commonly meant the concentration needed to halve the response being measured.

Calls of active or inactive are those of the source. Bounds are passed on as bounds.

Estrogen receptor beta, sequence (Q92731 whole entry): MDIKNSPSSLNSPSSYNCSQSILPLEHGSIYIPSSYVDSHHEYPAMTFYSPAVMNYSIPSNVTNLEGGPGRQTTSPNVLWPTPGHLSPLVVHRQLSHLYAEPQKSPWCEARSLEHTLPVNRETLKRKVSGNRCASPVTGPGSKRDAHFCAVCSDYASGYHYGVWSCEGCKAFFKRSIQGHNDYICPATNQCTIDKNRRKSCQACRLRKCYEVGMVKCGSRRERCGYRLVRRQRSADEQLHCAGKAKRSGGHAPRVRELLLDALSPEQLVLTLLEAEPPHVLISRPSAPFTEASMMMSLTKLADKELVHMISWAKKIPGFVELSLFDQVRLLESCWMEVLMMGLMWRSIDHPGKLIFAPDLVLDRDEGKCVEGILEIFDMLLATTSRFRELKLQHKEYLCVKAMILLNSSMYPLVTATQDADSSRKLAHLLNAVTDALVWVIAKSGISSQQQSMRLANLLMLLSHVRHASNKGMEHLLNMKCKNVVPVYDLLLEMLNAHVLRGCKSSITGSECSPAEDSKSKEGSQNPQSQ
Cytochrome P450 3A4, sequence (P08684 whole entry): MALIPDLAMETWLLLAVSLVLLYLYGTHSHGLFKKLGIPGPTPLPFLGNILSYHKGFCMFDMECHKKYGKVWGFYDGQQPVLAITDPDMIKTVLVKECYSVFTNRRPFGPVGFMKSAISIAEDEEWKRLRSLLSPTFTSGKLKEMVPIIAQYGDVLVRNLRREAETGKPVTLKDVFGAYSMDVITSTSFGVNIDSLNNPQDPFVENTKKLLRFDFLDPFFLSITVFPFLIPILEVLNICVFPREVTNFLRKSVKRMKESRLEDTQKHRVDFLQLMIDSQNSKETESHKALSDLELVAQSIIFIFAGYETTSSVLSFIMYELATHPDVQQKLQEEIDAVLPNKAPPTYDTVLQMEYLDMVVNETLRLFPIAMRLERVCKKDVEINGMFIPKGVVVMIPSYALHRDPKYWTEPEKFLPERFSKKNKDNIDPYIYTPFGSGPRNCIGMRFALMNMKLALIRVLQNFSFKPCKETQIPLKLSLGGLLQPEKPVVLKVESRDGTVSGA
Paired box protein Pax-8, sequence (Q06710 whole entry): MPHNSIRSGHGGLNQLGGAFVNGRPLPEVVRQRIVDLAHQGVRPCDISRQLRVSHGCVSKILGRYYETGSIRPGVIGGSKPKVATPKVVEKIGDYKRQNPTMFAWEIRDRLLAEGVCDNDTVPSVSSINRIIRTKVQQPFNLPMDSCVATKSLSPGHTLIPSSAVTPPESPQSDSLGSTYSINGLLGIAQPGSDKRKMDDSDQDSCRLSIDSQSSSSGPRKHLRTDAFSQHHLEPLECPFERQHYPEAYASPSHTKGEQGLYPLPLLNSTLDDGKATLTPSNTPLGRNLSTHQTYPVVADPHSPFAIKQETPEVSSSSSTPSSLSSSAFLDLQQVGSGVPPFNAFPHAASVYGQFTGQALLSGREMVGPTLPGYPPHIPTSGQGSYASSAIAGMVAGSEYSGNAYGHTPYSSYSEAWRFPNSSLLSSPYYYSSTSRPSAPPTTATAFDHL

On to `Cc1cc(-c2[nH]nc3c2C(c2cccc(O)c2)C(C#N)=C(N)O3)c(C)s1` (centres undefined), for which the AC50 in [1] was 4.58 µM (active). The concentration giving a half-maximal response (EC50) on Protein RecA is 2.65 µM (active). Also, the results for the IC50 (on Leucine aminopeptidase; in [2]) were 52.8 µM (active) and > 100 µM (active), respectively.

As to `CC(C)(C)c1ccc(-c2nnc3sc(-c4ccccn4)nn23)cc1`, in assay [3], the IC50 is > 85.4 µM (inactive). In assay [4], the 50% effective concentration (EC50) was 0.871 µM (active).

Consider `O=C(Nc1ccc2c(c1)OCO2)c1cc2ncc(Br)cn2n1`, for which the IC50 against Estrogen receptor beta is < 0.023 µM (not active).

Turning to `COC(=O)c1c(C)cc(OC)cc1O`, at Cytochrome P450 3A4, the half-maximal activity concentration (AC50) was 39.8 µM (inconclusive).

`OC[C@H]1[C@@H](c2ccc(C#CC3CCCC3)cc2)[C@@H]2CN(CCC(F)(F)F)CCCCN12`: the AC50 is 10.5 µM (active) in assay [5], 0.346 µM (active) in assay [6] and 11 µM (active) in [7].

For `O=C(Nc1ccc(C(F)(F)F)cc1)Nc1ccc2c(c1)[C@H]1C[C@@H](CC(=O)N3CCc4ccccc4C3)O[C@H](CO)[C@H]1O2`, the half-maximal activity concentration (AC50) in assay [8] was 54 µM (active); in assay [9], 23.6 µM (active); on Paired box protein Pax-8, 4.1 µM (active).
